Measurements published in patent EP1477475A1, “Compounds for use as a medicine increasing the contractility of a heart, a heart muscle or cells of a heart muscle” (Procorde GmbH, priority 2003, dated 2004).
Entries after “also recorded” stand apart in the source; their conditions may differ.

Tests used:
[1] = test system: native M1 receptor in HEK 293 cells; assay: Calcium measurements (Fura-2) in HEK 293 cells after carbachol (Gq-coupled pathway); format: cell-based; details: Figure 8; 30 µM compound, 30 minutes pre-incubation; 100 µM carbachol
[2] = test system: Gβγ-dependent activity of G protein-coupled receptor kinase 2 (GRK-2); assay: Rhodopsin phosphorylation assay (Gβγ-dependent GRK-2 activity); format: biochemical, bovine
Procedure: All substances derived from the virtual screen were tested for their ability to inhibit the Gβγ-dependent activity of G protein-coupled receptor kinase 2 (GRK-2) in a rhodopsin phosphorylation assay. Stock solutions of 10mM of all compounds were dissolved in DMSO, for all assays (in vitro and cellular) DMSO was added in the same amount to the respective control group. The initial compound screen was carried out in a 96 well plate formate. The assay mix contained 15µM ATP, 10mM MgCl2, 20nM Gβγ (from bovine brain), 60nM GRK-2(purified from baculoviral culture), ^32P-ATP (approximately 200.000 cpm/assay point) and 10µM of the respective compound in 50µl assay buffer (20mM Hepes pH 7.2, 2mM EDTA); 600nM rhodopsin (purified from bovine retina) was added in the dark. Stimulation was achieved by incubation for 10-15 min under yellow light. Subsequently, the mix was aspirated with a cell harvester and applied onto a glass-fiber membrane (GF/C); then, the assay plate was washed 10 times with 10ml assay buffer each. The membrane was counted in a Wallac counter (Cerenkov). Additionally, 45µl of the assay mix were counted to determine the total amount of radioactivity in the assay. […]
To test the ability of the compounds to inhibit Gβγ-dependent signalling a rhodopsin phosphorylation assay may be used. […] The effect of different compound concentrations may be determined in the same assay. […]

[3] = test system: isolated rabbit cardiomyocytes; assay: Measurement of cell shortening of isolated cardiomyocytes; format: cell-based; details: Figure 10; 10 µM COM1 for 10 minutes, then isoproterenol 1x10^-9 - 1x10^-7M; n = 8 cells per group
Procedure: Female New Zealand White rabbits (12 weeks old) were anesthesized with thiopental (75-1 00mg/kg) and 500 U heparin were injected intravenously. The thorax was opened and the heart was excised and put into ice-cold NaCl solution (0.9%). Fat and pericardium were removed. The aorta was attached to a perfusion system connected to a pump and the heart was retrogradely pefused at a flow rate of 20-40 ml/min with oxygenated (95% oxygen, 5% CO2) Powell medium (110mM NaCl, 2.5mM KCI, KH2PO4 1.2 mM, MgSO4 1.2 mM, NaHCO3 25 mM, Glucose 11 mM; pH 7.4) until all blood was washed out. […]
Cell shortening was measured with an electro-optical monitoring system connected to an online digitalized assessment of amplitude and velocity of shortening and relaxation (Scientific Instruments). […] Cell shortening was monitored using an edge detection camera and the data were transferred to a computer and fractional shortening was calculated for a single cell.
Overexpression of proteins which can bind Gβγ subunits, such as phosducin or the C-terminus of GRK-2, result in an increased contractility of cardiomyocytes. Therefore, the compounds' effects on this important parameter were determined. In isolated rabbit cardiomyocytes, basal, compound-incubated and isoproterenol- stimulated contractility were measured and expressed as fractional shortening of the single cell.

Structure (SMILES)	Calcium release mediated via the Gq-coupled pathway [1]	Effect of increasing concentrations of Gβγ on the inhibition of GRK-2-mediated phosphorylation of rhodopsin ([2]; Figure 3, COM2 3µM, GRK-2 50nM, rhodopsin 100nM, Gβγ 3 to 1000 nM, result at 1000 nM Gβγ)	Isoproterenol-stimulated contractility (fractional shortening, contraction amplitude) [3]	Reversal of inhibition of Gβγ-dependent GRK-2 activity by increasing concentrations of the substrate rhodopsin ([2]; Figure 4, GRK-2 50 nM, COM1 30 µM, rhodopsin 10-3000 nM)
O=C(Nc1ccccc1C(=O)O)c1ccc2c(c1)C(=O)N(c1ccc(Oc3ccc(N4C(=O)c5ccc(C(=O)Nc6ccccc6C(=O)O)cc5C4=O)cc3)cc1)C2=O [COM2, 2-[({2-[4-(4-{5-[(2-carboxyanilino)carbonyl]-1,3-dioxo-1,3-dihydro-2H-isoindol-2-yl}phenoxy)phenyl]-1,3-dioxo-2,3-dihydro-1H-isoindol-5-yl}carbonyl)amino]benzoic acid]	does not have an effect	completely blunted; also recorded: completely reversed	–	–
O=C(Nc1ccc(-c2ccc(NC(=O)c3ccc(F)cc3)c(C(=O)O)c2)cc1C(=O)O)c1ccc(F)cc1 [COM1, 4,4'-bis[(4-fluorobenzoyl)amino][1,1'-biphenyl]-3,3'-dicarboxylic acid]	–	–	positive inotropic effect	can be reversed
O=C(C=Cc1ccco1)Nc1ccc(-c2ccc(NC(=O)C=Cc3ccco3)c(C(=O)O)c2)cc1C(=O)O [COM3, 4,4'-bis{[3-(2-furyl)acryloyl]amino}[1,1'-biphenyl]-3,3'-dicarboxylic acid]	displays an inhibitory potential	–	–	–
